# According to patent US9156845B2, “4-(substituted amino)-7H-pyrrolo[2,3-d] pyrimidines as LRRK2 inhibitors” (Pfizer Inc., priority 2012, dated 2015):
# Experiments:
# ZAP70 = ZAP70 (Homo sapiens (Human), UniProt P43403); experiment: ActivX kinase probe assay (human PBMC); format: binding; conditions: read-out: percent inhibition
# PCTAIRE2, PCTAIRE3 = experiment: ActivX kinase probe assay (human PBMC); format: binding
# PKR = PKR (Homo sapiens (Human), UniProt P19525); experiment: ActivX kinase probe assay (human PBMC); format: binding; conditions: read-out: percent inhibition
# RSK1 domain1 = RSK1 domain1 (Homo sapiens (Human), UniProt Q15418); experiment: ActivX kinase probe assay (human PBMC); format: binding; conditions: read-out: percent inhibition
# BTK = BTK (Homo sapiens (Human), UniProt Q06187); experiment: ActivX kinase probe assay (human PBMC); format: binding; conditions: read-out: percent inhibition
# mutant G2019S LRRK2 = mutant G2019S LRRK2 (Homo sapiens (Human), UniProt Q5S007, G2019S); experiment: LRRK2 Lantha Screen kinase assay, mutant enzyme; format: biochemical; conditions: geometric mean of 2-5 determinations unless otherwise indicated (a: >=6 determinations; b: single determination)
# RSKL1 domain1 = RSKL1 domain1 (Homo sapiens (Human), UniProt Q96S38); experiment: ActivX kinase probe assay (human PBMC); format: binding; conditions: read-out: percent inhibition
# PI4KB = PI4KB (Homo sapiens (Human), UniProt Q9UBF8); experiment: ActivX kinase probe assay (human PBMC); format: binding; conditions: read-out: percent inhibition
# CDK5 = CDK5 (Homo sapiens (Human), UniProt Q00535); experiment: ActivX kinase probe assay (human PBMC); format: binding; conditions: read-out: percent inhibition
# p38a = p38a (Homo sapiens (Human), UniProt Q16539); experiment: ActivX kinase probe assay (human PBMC); format: binding; conditions: read-out: percent inhibition
# JAK2 domain2 = JAK2 domain2 (Homo sapiens (Human), UniProt O60674); experiment: ActivX kinase probe assay (human PBMC); format: binding; conditions: read-out: percent inhibition
# IKKb = IKKb (Homo sapiens (Human), UniProt O14920); experiment: ActivX kinase probe assay (human PBMC); format: binding; conditions: read-out: percent inhibition
# RIPK3 = RIPK3 (Homo sapiens (Human), UniProt Q9Y572); experiment: ActivX kinase probe assay (human PBMC); format: binding; conditions: read-out: percent inhibition
# AKT1 = AKT1 (Homo sapiens (Human), UniProt P31749); experiment: ActivX kinase probe assay (human PBMC); format: binding; conditions: read-out: percent inhibition
# FRAP = FRAP (Homo sapiens (Human), UniProt P42345); experiment: ActivX kinase probe assay (human PBMC); format: binding; conditions: read-out: percent inhibition
# [1] = test system: ZC1/HGK, ZC2/TNIK, ZC3/MINK; experiment: ActivX kinase probe assay (human PBMC); format: binding
# MST4, YSK1 = experiment: ActivX kinase probe assay (human PBMC); format: binding
# CaMK1d = CaMK1d (Homo sapiens (Human), UniProt Q8IU85); experiment: ActivX kinase probe assay (human PBMC); format: binding; conditions: read-out: percent inhibition
# LATS2 = LATS2 (Homo sapiens (Human), UniProt Q9NRM7); experiment: ActivX kinase probe assay (human PBMC); format: binding; conditions: read-out: percent inhibition
# LYN = LYN (Homo sapiens (Human), UniProt P07948); experiment: ActivX kinase probe assay (human PBMC); format: binding; conditions: read-out: percent inhibition
# LOK = LOK (Homo sapiens (Human), UniProt O94804); experiment: ActivX kinase probe assay (human PBMC); format: binding; conditions: read-out: percent inhibition
# TBK1 = TBK1 (Homo sapiens (Human), UniProt Q9UHD2); experiment: ActivX kinase probe assay (human PBMC); format: binding; conditions: read-out: percent inhibition
# eEF2K = eEF2K (Homo sapiens (Human), UniProt O00418); experiment: ActivX kinase probe assay (human PBMC); format: binding; conditions: read-out: percent inhibition
# PIK3C3 = PIK3C3 (Homo sapiens (Human), UniProt Q8NEB9); experiment: ActivX kinase probe assay (human PBMC); format: binding; conditions: read-out: percent inhibition
# FAK = FAK (Homo sapiens (Human), UniProt Q05397); experiment: ActivX kinase probe assay (human PBMC); format: binding; conditions: read-out: percent inhibition
# GSK3A = GSK3A (Homo sapiens (Human), UniProt P49840); experiment: ActivX kinase probe assay (human PBMC); format: binding; conditions: read-out: percent inhibition
# MSK1 domain1 = MSK1 domain1 (Homo sapiens (Human), UniProt O75582); experiment: ActivX kinase probe assay (human PBMC); format: binding; conditions: read-out: percent inhibition
# PIP4K2A = PIP4K2A (Homo sapiens (Human), UniProt P48426); experiment: ActivX kinase probe assay (human PBMC); format: binding; conditions: read-out: percent inhibition
# TLK2 = TLK2 (Homo sapiens (Human), UniProt Q86UE8); experiment: ActivX kinase probe assay (human PBMC); format: binding; conditions: read-out: percent inhibition
# MARK3 = MARK3 (Homo sapiens (Human), UniProt P27448); experiment: ActivX kinase probe assay (human PBMC); format: binding; conditions: read-out: percent inhibition
# Wnk1, Wnk2, Wnk3 = experiment: ActivX kinase probe assay (human PBMC); format: binding
# NDR2 = NDR2 (Homo sapiens (Human), UniProt Q9Y2H1); experiment: ActivX kinase probe assay (human PBMC); format: binding; conditions: read-out: percent inhibition
# SMG1 = SMG1 (Homo sapiens (Human), UniProt Q96Q15); experiment: ActivX kinase probe assay (human PBMC); format: binding; conditions: read-out: percent inhibition
# ULK3 = ULK3 (Homo sapiens (Human), UniProt Q6PHR2); experiment: ActivX kinase probe assay (human PBMC); format: binding; conditions: read-out: percent inhibition
# p38d, p38g = experiment: ActivX kinase probe assay (human PBMC); format: binding
# RSK1 domain1, sequence (Q15418 whole entry, the tested form may be a part): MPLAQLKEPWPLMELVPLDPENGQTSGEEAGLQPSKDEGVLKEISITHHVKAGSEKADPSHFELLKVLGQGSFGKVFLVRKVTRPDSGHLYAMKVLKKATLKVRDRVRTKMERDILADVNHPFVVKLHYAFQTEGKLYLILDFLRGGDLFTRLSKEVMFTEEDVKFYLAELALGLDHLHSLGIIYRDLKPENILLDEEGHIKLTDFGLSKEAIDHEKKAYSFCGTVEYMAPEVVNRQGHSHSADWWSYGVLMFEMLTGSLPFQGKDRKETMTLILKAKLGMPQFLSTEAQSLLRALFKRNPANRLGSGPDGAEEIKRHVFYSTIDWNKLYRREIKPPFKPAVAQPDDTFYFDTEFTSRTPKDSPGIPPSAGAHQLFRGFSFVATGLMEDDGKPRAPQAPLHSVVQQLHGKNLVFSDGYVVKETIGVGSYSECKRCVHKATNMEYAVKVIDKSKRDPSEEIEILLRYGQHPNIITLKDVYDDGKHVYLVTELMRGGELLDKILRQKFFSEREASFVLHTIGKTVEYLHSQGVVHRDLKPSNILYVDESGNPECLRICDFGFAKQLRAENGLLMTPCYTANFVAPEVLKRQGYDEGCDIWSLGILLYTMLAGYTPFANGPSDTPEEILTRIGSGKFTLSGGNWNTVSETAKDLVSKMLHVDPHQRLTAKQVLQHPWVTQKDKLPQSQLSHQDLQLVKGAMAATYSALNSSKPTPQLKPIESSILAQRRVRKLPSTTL
# p38a, sequence (Q16539 whole entry, the tested form may be a part): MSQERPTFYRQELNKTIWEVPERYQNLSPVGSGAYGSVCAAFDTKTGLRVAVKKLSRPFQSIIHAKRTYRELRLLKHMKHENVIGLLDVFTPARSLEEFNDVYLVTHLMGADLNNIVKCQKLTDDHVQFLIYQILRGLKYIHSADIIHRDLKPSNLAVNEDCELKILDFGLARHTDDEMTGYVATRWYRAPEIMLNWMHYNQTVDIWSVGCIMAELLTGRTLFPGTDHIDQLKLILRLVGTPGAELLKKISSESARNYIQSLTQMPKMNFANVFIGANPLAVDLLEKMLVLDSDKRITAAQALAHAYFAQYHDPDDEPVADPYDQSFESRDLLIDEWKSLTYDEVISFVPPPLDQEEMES
# CaMK1d, sequence (Q8IU85 whole entry): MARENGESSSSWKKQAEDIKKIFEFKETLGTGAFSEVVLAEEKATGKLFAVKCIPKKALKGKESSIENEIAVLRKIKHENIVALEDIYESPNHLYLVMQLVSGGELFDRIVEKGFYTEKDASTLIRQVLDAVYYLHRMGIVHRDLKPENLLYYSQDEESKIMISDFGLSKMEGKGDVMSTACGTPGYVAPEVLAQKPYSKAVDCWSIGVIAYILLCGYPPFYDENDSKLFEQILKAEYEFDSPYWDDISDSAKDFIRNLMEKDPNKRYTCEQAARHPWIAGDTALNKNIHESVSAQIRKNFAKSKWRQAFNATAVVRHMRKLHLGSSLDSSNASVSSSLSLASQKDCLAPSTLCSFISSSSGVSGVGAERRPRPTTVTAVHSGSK
# FAK, sequence (Q05397 whole entry): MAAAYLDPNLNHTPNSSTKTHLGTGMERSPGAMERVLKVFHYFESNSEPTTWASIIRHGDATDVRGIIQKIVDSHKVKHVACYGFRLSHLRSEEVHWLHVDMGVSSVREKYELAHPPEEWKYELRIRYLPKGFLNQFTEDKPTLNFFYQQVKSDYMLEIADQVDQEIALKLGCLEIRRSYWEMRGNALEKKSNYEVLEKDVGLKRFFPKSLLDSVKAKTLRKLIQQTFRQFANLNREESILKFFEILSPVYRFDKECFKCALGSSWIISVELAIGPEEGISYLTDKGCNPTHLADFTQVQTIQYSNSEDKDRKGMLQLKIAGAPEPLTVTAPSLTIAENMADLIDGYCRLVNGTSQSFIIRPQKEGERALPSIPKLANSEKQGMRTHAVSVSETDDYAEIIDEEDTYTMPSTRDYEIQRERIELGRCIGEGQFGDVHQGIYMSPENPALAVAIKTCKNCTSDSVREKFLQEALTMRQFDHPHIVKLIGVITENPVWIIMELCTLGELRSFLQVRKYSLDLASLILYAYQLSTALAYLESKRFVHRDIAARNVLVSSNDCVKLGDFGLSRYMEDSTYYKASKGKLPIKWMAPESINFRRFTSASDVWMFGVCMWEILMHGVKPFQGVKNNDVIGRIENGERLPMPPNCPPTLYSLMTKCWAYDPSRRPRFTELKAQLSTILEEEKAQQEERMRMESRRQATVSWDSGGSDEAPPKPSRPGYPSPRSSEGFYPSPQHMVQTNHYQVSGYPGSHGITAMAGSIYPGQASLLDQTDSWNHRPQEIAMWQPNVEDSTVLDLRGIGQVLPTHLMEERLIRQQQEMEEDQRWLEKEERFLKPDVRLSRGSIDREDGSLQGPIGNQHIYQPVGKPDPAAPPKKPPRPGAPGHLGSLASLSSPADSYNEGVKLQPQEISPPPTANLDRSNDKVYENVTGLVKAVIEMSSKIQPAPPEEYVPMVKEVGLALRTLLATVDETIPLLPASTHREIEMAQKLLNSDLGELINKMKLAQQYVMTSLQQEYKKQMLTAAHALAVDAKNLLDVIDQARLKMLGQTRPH
# AKT1, sequence (P31749 whole entry): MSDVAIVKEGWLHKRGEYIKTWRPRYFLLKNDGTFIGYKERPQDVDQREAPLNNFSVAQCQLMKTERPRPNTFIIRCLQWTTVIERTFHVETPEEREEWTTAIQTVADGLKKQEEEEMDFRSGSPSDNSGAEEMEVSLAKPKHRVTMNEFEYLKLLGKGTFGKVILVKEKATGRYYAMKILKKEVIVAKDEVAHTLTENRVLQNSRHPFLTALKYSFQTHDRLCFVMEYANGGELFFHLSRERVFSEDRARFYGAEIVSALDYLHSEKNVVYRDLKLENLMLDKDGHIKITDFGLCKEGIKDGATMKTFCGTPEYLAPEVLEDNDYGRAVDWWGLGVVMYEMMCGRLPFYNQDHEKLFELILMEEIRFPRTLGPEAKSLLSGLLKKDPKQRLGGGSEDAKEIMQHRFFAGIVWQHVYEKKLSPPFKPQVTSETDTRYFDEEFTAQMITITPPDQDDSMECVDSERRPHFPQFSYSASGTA
# LOK, sequence (O94804 whole entry): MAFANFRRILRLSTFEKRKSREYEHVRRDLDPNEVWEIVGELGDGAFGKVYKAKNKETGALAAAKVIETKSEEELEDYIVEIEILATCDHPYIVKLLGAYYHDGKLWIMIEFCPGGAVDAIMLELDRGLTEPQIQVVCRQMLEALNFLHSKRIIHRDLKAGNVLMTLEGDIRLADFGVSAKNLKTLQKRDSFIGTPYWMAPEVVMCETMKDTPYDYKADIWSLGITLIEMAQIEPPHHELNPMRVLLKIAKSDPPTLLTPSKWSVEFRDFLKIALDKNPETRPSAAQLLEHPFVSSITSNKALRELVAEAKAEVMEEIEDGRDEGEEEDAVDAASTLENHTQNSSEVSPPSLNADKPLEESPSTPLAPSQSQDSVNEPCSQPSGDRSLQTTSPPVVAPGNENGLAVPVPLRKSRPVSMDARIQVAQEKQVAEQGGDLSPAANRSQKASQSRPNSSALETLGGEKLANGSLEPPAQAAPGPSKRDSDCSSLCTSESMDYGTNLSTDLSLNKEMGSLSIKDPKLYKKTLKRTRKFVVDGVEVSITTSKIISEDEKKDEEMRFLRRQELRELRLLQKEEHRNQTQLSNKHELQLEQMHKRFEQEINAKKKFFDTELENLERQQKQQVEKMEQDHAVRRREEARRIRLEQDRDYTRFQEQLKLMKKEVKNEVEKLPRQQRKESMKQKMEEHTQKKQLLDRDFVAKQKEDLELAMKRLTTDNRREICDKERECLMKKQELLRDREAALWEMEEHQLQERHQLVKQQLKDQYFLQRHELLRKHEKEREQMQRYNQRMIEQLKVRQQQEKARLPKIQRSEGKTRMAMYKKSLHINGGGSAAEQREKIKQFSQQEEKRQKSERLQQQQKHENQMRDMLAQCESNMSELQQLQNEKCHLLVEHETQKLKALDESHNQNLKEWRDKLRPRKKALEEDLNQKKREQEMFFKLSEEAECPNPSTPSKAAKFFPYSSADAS
# MSK1 domain1, sequence (O75582 whole entry, the tested form may be a part): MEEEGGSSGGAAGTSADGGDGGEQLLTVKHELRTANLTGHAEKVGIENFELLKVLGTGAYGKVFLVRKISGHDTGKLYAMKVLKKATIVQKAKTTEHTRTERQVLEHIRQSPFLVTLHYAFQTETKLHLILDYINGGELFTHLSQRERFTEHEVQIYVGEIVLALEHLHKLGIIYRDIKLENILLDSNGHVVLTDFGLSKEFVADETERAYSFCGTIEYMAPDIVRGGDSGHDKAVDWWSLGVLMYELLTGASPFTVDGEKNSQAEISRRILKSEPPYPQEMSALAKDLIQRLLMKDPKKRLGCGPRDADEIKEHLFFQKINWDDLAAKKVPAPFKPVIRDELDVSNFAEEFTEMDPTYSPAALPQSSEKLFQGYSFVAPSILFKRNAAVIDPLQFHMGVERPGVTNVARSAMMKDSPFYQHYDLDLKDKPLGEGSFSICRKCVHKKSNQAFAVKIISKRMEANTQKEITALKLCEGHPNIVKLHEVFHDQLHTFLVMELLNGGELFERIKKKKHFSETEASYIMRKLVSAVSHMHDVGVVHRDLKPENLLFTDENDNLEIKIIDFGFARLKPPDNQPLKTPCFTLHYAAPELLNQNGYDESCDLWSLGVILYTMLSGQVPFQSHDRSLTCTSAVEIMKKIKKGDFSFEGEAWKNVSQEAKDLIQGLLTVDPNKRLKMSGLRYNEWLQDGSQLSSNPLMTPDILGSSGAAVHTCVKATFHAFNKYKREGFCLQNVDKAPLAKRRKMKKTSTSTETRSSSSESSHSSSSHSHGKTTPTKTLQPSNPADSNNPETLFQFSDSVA
compound,measurement,setting,value
"N#Cc1cccc(-c2c[nH]c3ncnc(N4CCOCC4)c23)c1 [Example 4, 3-[4-(Morpholin-4-yl)-7H-pyrrolo[2,3-d]pyrimidin-5-yl]benzonitrile]",inhibition at 0.1 µM,ZAP70,-4.9%
same,inhibition at 1 µM,ZAP70,6.8%
same,percent inhibition,"PCTAIRE2, PCTAIRE3; 0.1 μM",−5.4%
same,percent inhibition,"PCTAIRE2, PCTAIRE3; 1 μM",24.7%
same,inhibition at 0.1 µM,PKR,-3.3%
same,inhibition at 1 µM,PKR,7.2%
same,inhibition at 0.1 µM,RSK1 domain1,-26.8%
same,inhibition at 1 µM,RSK1 domain1,32.9%
same,inhibition at 0.1 µM,BTK,-2.2%
same,inhibition at 1 µM,BTK,9.5%
same,IC50,mutant G2019S LRRK2,0.011 µM
same,inhibition at 0.1 µM,RSKL1 domain1,1.1%
same,inhibition at 1 µM,RSKL1 domain1,-1.8%
same,inhibition at 0.1 µM,PI4KB,-7.4%
same,inhibition at 1 µM,PI4KB,4.9%
same,inhibition at 0.1 µM,CDK5,-12.2%
same,inhibition at 1 µM,CDK5,0.1%
same,inhibition at 0.1 µM,p38a,-14.6%
same,inhibition at 1 µM,p38a,-1.7%
same,inhibition at 0.1 µM,JAK2 domain2,0.7%
same,inhibition at 1 µM,JAK2 domain2,16.4%
same,inhibition at 0.1 µM,IKKb,-15.5%
same,inhibition at 1 µM,IKKb,-15.8%
same,inhibition at 0.1 µM,RIPK3,-3.2%
same,inhibition at 1 µM,RIPK3,8%
same,inhibition at 0.1 µM,AKT1,-8.8%
same,inhibition at 1 µM,AKT1,-6.3%
same,inhibition at 0.1 µM,FRAP,-20.7%
same,inhibition at 1 µM,FRAP,9.8%
same,percent inhibition,[1]; 0.1 μM,−3.2%
same,percent inhibition,[1]; 1 μM,14.8%
same,percent inhibition,"MST4, YSK1; 0.1 μM",11.9%
same,percent inhibition,"MST4, YSK1; 1 μM",60.7%
same,inhibition at 0.1 µM,CaMK1d,-12.1%
same,inhibition at 1 µM,CaMK1d,0.9%
same,inhibition at 0.1 µM,LATS2,-7.2%
same,inhibition at 1 µM,LATS2,16.2%
same,inhibition at 0.1 µM,LYN,-5.4%
same,inhibition at 1 µM,LYN,0.8%
same,inhibition at 0.1 µM,LOK,11.9%
same,inhibition at 1 µM,LOK,53.6%
same,inhibition at 0.1 µM,TBK1,7.3%
same,inhibition at 1 µM,TBK1,16.4%
same,inhibition at 0.1 µM,eEF2K,-27.1%
same,inhibition at 1 µM,eEF2K,2.8%
same,inhibition at 0.1 µM,PIK3C3,-2.4%
same,inhibition at 1 µM,PIK3C3,13.6%
same,inhibition at 0.1 µM,FAK,-8.9%
same,inhibition at 1 µM,FAK,11.1%
same,inhibition at 0.1 µM,GSK3A,-0.9%
same,inhibition at 1 µM,GSK3A,7.2%
same,inhibition at 0.1 µM,MSK1 domain1,1%
same,inhibition at 1 µM,MSK1 domain1,-3.8%
same,inhibition at 0.1 µM,PIP4K2A,-12.1%
same,inhibition at 1 µM,PIP4K2A,1.9%
same,inhibition at 0.1 µM,TLK2,-8.4%
same,inhibition at 1 µM,TLK2,-9.4%
same,inhibition at 0.1 µM,MARK3,-2.6%
same,inhibition at 1 µM,MARK3,23.7%
same,percent inhibition,"Wnk1, Wnk2, Wnk3; 0.1 μM",1.7%
same,percent inhibition,"Wnk1, Wnk2, Wnk3; 1 μM",−6%
same,inhibition at 0.1 µM,NDR2,-18.7%
same,inhibition at 1 µM,NDR2,22.1%
same,inhibition at 0.1 µM,SMG1,-2.5%
same,inhibition at 1 µM,SMG1,13%
same,inhibition at 0.1 µM,ULK3,3.1%
same,inhibition at 1 µM,ULK3,5.2%
same,percent inhibition,"p38d, p38g; 0.1 μM",−17.5%
same,percent inhibition,"p38d, p38g; 1 μM",−5.7%
